From patent publication US10106501B2, “Nuclear receptor modulators” (AbbVie Inc., priority 2015, dated 2018)
Like-named read-outs stand apart in the source and are kept apart here.

Biological target: T1, chimeric human RORγ-Gal4 receptor (Homo sapiens, UniProt P51449)
T1 sequence (P51449 269-508 limits assumed): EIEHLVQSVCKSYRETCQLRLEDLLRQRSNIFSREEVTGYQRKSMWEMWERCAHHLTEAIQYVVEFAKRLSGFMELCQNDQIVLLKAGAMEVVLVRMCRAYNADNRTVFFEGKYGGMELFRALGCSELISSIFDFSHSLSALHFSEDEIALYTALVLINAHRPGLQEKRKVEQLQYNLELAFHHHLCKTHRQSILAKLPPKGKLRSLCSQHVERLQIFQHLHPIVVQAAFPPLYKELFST
Assay: transient transactivation assay (RORγ-Gal4 luciferase reporter)
Assay type: cell-based

[1] = Cos-7 cells transfected with RORγ-Gal4 and 5Gal4 pGL3 TK Luc reporter, overnight incubation, T0901317 at 10^-5 M as reference, read-out: IC50

| Structure (SMILES) | IC50 [1] | IC50 |
| --- | --- | --- |
| Cc1cc(C#N)cc2c1cc(Cc1c(Cl)ccc(CN3CCOCC3=O)c1Cl)n2C [Example AU, 2-(2,6-dichloro-3-((3-oxomorpholino)methyl)benzyl)-1,4-dimethyl-1H-indole-6-carbonitrile] |  | 100 to 500 nM |
| CCOC(=O)CN1CCN(C(=O)c2ccc(Cl)c(Cc3cc4c(C)cc(C(F)(F)F)cc4n3C)c2Cl)CC1 [Example AV, ethyl 2-(4-(2,4-dichloro-3-((1,4-dimethyl-6-(trifluoromethyl)-1H-indol-2-yl)methyl)benzoyl)piperazin-1-yl)acetate] | 100 to 500 nM |  |
| Cc1cc(Br)cc2c1cc(Cc1c(Cl)ccc(C(=O)N3CCOCC3)c1Cl)n2C [Example AX, (3-((6-bromo-1,4-dimethyl-1H-indol-2-yl)methyl)-2,4-dichlorophenyl)(morpholino)methanone] | < 100 nM |  |
| Cc1cc(N2CCOCC2)cc2c1cc(Cc1c(Cl)ccc(C(=O)N3CCOCC3)c1Cl)n2C [Example AY, (2,4-dichloro-3-((1,4-dimethyl-6-morpholino-1H-indol-2-yl)methyl)phenyl)(morpholino)methanone] | < 100 nM |  |
| Cc1cc(C(F)(F)F)cc2c1cc(Cc1c(Cl)ccc(C(=O)N3CCC(C(=O)O)C(F)(F)C3)c1Cl)n2C (stereo not drawn) [Example AZ, 1-(2,4-dichloro-3-((1,4-dimethyl-6-(trifluoromethyl)-1H-indol-2-yl)methyl)benzoyl)-3,3-difluoropiperidine-4-carboxylic acid] | < 100 nM |  |
| Cc1cc(C(F)(F)F)cc2c1cc(Cc1c(Cl)ccc(C(=O)N3CCC(OCC(=O)O)CC3)c1Cl)n2C [Example B-2] | < 100 nM |  |
| Cc1cc(C(F)(F)F)cc2c1cc(Cc1c(Cl)ccc(C(=O)N3CC(C)(C(=O)O)C3)c1Cl)n2C [Example B-5] | 100 to 500 nM |  |
| Cc1cc(C(F)(F)F)cc2c1cc(Cc1c(Cl)ccc(C(=O)N3CCC(CC(=O)O)C3)c1Cl)n2C (stereo not drawn) [Example B-6] | < 100 nM |  |
| Cc1cc(C(F)(F)F)cc2c1cc(Cc1c(Cl)ccc(C(=O)N3CC(CC(=O)O)C3)c1Cl)n2C [Example B-9] | < 100 nM |  |
| Cc1cc(C(F)(F)F)cc2c1cc(Cc1c(Cl)ccc(C(=O)N3CCC(C)(C(=O)O)CC3)c1Cl)n2C [Example B-13] | 100 to 500 nM |  |
| Cc1cc(C(F)(F)F)cc2c1cc(Cc1c(Cl)ccc(C(=O)N3CCC(F)(C(=O)O)CC3)c1Cl)n2C [Example B-14] | 100 to 500 nM |  |
| COC[C@@H]1CN(C(=O)c2ccc(Cl)c(Cc3cc4c(C)cc(C(F)(F)F)cc4n3C)c2Cl)C[C@H]1C(=O)O [Example B-15] | 1000 to 10000 nM |  |
| Cc1cc(C(F)(F)F)cc2c1cc(Cc1c(Cl)ccc(C(=O)N3C[C@@]4(C(=O)O)CC[C@@H]3C4)c1Cl)n2C [Example B-16] | 100 to 500 nM |  |
| Cc1cc(C(F)(F)F)cc2c1cc(Cc1c(Cl)ccc(C(=O)N3CC4(CC(CC(=O)O)C4)C3)c1Cl)n2C [Example B-17] | < 100 nM |  |
| Cc1cc(C(F)(F)F)cc2c1cc(Cc1c(Cl)ncc(C(=O)N3CCC(CC(=O)O)CC3)c1Cl)n2C [Example B-22] | < 100 nM |  |
| Cc1cc(C(F)(F)F)cc2c1cc(Cc1c(Cl)ccc(C(=O)N3CCC(C(C)(C)C(=O)O)CC3)c1Cl)n2C [Example B-23] | < 100 nM |  |
| Cc1cc(C(F)(F)F)cc2c1cc(Cc1c(Cl)ccc(C(=O)N3CCC(CCC(=O)O)CC3)c1Cl)n2C [Example B-24] | < 100 nM |  |
| Cc1ncc(C(=O)N2CCOCC2)c(C)c1Cc1cc2c(C)cc(C(F)(F)F)cc2n1C [Example BB, (5-((1,4-dimethyl-6-(trifluoromethyl)-1H-indol-2-yl)methyl)-4,6-dimethylpyridin-3-yl)(morpholino)methanone] | 500 to 1000 nM |  |
| Cc1ncc(C(=O)N2CCC(CC(=O)O)CC2)c(C)c1Cc1cc2c(C)cc(C(F)(F)F)cc2n1C [Example BC, 2-(1-(5-((1,4-dimethyl-6-(trifluoromethyl)-1H-indol-2-yl)methyl)-4,6-dimethylnicotinoyl)piperidin-4-yl)acetic acid] | 100 to 500 nM |  |
| Cc1ncc(C(=O)N2CCC(C3COC3)CC2)c(C)c1C(=O)c1cc2c(C)cc(C#N)cc2n1C [Example BD, 2-[2,4-dimethyl-5-[4-(oxetan-3-yl)piperidine-1-carbonyl]pyridine-3-carbonyl]-1,4-dimethyl-indole-6-carbonitrile] | 1000 to 10000 nM |  |
| Cc1cc(C#N)cc2c1cc(Cc1c(Cl)cnc(C(=O)N3CCC(CC(=O)O)CC3)c1Cl)n2C [Example BG, 2-[1-[3,5-dichloro-4-[(6-cyano-1,4-dimethyl-indol-2-yl)methyl]pyridine-2-carbonyl]-4-piperidyl]acetic acid] | 500 to 1000 nM |  |
| Cc1cc(C(F)(F)F)cc2c1cc(Cc1c(Cl)ncc(C(=O)N3CCOCC3)c1Cl)n2C [Example BH, (4,6-dichloro-5-((1,4-dimethyl-6-(trifluoromethyl)-1H-indol-2-yl)methyl)pyridin-3-yl)(morpholino)methanone] | < 100 nM |  |
| Cc1cc(C(F)(F)F)cc2c1cc(Cc1c(Cl)cn(CCC(=O)O)c(=O)c1Cl)n2C [Example BI, 3-(3,5-dichloro-4-((1,4-dimethyl-6-(trifluoromethyl)-1H-indol-2-yl)methyl)-2-oxopyridin-1(2H)-yl)propanoic acid] | 1000 to 10000 nM |  |

Second part, led by results:

| IC50 [1] | Structure (SMILES) | IC50 |
| --- | --- | --- |
| < 100 nM | Cc1cc(C(F)(F)F)cc2c1cc(Cc1c(Cl)ccc(C(=O)N3CCC(C(=O)O)C(C)C3)c1Cl)n2C (stereo not drawn) [Example B-1, 1-(2,4-dichloro-3-((1,4-dimethyl-6-(trifluoromethyl)-1H-indol-2-yl)methyl)benzoyl)-3-methylpiperidine-4-carboxylic acid] |  |
| 100 to 500 nM | Cc1cc(C(F)(F)F)cc2c1cc(Cc1c(Cl)ccc(C(=O)N3CCC(C(=O)O)C3)c1Cl)n2C (stereo not drawn) [Example B-3] |  |
| < 100 nM | Cc1cc(C(F)(F)F)cc2c1cc(Cc1c(Cl)ccc(C(=O)N3CCC(CC(=O)O)CC3)c1Cl)n2C [Example B-7] |  |
| < 100 nM | Cc1cc(C(F)(F)F)cc2c1cc(Cc1c(Cl)ccc(C(=O)N3C[C@@H]4C(C(=O)O)[C@@H]4C3)c1Cl)n2C (stereo partly drawn) [Example B-8] |  |
| 1000 to 10000 nM | Cc1cc(C(F)(F)F)cc2c1cc(Cc1c(Cl)ccc(C(=O)N3CCC(O)C(C(=O)O)C3)c1Cl)n2C (stereo not drawn) [Example B-10] |  |
| 100 to 500 nM | Cc1cc(C(F)(F)F)cc2c1cc(Cc1c(Cl)ccc(C(=O)N3CCCC(C(=O)O)C3)c1Cl)n2C (stereo not drawn) [Example B-11] |  |
| < 100 nM | Cc1cc(C(F)(F)F)cc2c1cc(Cc1c(Cl)ccc(C(=O)N3CC4(CC(C(=O)O)C4)C3)c1Cl)n2C [Example B-18] |  |
| < 100 nM | Cc1cc(C(F)(F)F)cc2c1cc(Cc1c(Cl)ccc(C(=O)N3CCC(C(C)C(=O)O)CC3)c1Cl)n2C (stereo not drawn) [Example B-19] |  |
| < 100 nM | Cc1cc(C(F)(F)F)cc2c1cc(Cc1c(Cl)ccc(C(=O)N3CCC(C(O)C(=O)O)CC3)c1Cl)n2C (stereo not drawn) [Example B-20] |  |
| < 100 nM | Cc1cc(C(F)(F)F)cc2c1cc(Cc1c(Cl)ccc(C(=O)N3CCC(CC(=O)O)C(C)C3)c1Cl)n2C (stereo not drawn) [Example B-21] |  |
| < 100 nM | Cc1cc(C(F)(F)F)cc2c1cc(Cc1c(Cl)ccc(C(=O)N[C@H]3CC[C@@H](C(=O)O)CC3)c1Cl)n2C [Example B-25] |  |
| < 100 nM | Cc1cc(C(F)(F)F)cc2c1cc(Cc1c(Cl)ccc(C(=O)N3CC[C@H](C(=O)O)[C@@H](C)C3)c1Cl)n2C [Example B-26] |  |
| < 100 nM | Cc1cc(C(F)(F)F)cc2c1cc(Cc1c(Cl)ccc(C(=O)N3CCC(C(=O)O)C(F)C3)c1Cl)n2C (stereo not drawn) [Example BA, 1-(2,4-dichloro-3-((1,4-dimethyl-6-(trifluoromethyl)-1H-indol-2-yl)methyl)benzoyl)-3-fluoropiperidine-4-carboxylic acid] |  |
